Laboratory results: ChEMBL document CHEMBL5465560, “Selectivity Literature for EUbOPEN Chemogenomic Library” (2024)
Blank lines part the entries; values can stand above or below the compound they belong to.

Assays:
[1] = molecular target: Serine/threonine-protein kinase WNK1 (Homo sapiens) (UniProt Q9H4A3); assay: Selectivity interaction (KinomeScan (DiscoverX)) EUB0000607a WNK1; settings: at 10 µM
[2] = molecular target: T1, Serine/threonine-protein kinase PLK4 (Homo sapiens) (UniProt O00444); assay: Selectivity interaction (Kinase panel (DSF assay)) EUB0001559a PLK4
T1 sequence (whole entry): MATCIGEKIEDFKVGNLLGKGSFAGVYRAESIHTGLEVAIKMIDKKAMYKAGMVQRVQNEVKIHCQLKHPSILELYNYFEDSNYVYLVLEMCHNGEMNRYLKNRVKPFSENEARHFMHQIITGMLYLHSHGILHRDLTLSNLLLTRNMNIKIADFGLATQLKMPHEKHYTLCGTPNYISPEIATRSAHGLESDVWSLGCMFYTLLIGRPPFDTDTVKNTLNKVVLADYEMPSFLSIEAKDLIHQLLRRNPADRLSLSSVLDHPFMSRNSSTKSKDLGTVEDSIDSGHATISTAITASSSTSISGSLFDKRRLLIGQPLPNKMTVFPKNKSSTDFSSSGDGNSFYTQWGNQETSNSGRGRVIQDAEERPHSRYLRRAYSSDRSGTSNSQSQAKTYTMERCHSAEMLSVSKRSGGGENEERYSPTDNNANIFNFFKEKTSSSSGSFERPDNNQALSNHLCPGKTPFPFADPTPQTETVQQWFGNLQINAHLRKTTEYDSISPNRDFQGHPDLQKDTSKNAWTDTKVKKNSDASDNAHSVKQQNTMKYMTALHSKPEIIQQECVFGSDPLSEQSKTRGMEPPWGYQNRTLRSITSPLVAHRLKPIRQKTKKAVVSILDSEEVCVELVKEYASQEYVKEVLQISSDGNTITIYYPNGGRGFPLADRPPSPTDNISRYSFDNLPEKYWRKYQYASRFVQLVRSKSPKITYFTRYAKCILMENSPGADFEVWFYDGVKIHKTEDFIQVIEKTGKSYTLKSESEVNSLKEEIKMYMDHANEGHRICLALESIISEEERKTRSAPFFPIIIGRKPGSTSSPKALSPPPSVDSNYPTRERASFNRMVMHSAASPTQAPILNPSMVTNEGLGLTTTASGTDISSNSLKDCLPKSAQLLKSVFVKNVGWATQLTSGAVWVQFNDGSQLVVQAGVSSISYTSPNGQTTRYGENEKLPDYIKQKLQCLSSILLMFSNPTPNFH

[3] = molecular target: T2, Serine/threonine-protein kinase 17A (Homo sapiens) (UniProt Q9UEE5); assay: Selectivity interaction (KinomeScan (DiscoverX)) EUB0000595a STK17A; settings: at 10 µM
T2 sequence (whole entry): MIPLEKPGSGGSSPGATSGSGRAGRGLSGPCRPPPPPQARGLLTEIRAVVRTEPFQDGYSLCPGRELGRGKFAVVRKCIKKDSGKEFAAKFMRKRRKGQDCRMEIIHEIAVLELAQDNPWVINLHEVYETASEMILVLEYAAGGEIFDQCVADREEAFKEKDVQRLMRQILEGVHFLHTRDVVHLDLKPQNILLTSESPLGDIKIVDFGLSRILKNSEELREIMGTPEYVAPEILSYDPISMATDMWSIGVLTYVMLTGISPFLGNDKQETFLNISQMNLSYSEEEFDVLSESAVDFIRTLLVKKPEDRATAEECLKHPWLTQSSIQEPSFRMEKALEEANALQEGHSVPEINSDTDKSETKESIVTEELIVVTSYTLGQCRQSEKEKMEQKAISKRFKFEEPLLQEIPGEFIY

[4] = molecular target: Serine/threonine-protein kinase N1 (Homo sapiens, UniProt Q16512); assay: Selectivity interaction (KinomeScan (DiscoverX)) EUB0000229b PKN1; settings: at 10 µM
[5] = molecular target: T3, Serine/threonine-protein kinase LATS1 (Homo sapiens) (UniProt O95835); settings: at 10 µM
T3 sequence (whole entry): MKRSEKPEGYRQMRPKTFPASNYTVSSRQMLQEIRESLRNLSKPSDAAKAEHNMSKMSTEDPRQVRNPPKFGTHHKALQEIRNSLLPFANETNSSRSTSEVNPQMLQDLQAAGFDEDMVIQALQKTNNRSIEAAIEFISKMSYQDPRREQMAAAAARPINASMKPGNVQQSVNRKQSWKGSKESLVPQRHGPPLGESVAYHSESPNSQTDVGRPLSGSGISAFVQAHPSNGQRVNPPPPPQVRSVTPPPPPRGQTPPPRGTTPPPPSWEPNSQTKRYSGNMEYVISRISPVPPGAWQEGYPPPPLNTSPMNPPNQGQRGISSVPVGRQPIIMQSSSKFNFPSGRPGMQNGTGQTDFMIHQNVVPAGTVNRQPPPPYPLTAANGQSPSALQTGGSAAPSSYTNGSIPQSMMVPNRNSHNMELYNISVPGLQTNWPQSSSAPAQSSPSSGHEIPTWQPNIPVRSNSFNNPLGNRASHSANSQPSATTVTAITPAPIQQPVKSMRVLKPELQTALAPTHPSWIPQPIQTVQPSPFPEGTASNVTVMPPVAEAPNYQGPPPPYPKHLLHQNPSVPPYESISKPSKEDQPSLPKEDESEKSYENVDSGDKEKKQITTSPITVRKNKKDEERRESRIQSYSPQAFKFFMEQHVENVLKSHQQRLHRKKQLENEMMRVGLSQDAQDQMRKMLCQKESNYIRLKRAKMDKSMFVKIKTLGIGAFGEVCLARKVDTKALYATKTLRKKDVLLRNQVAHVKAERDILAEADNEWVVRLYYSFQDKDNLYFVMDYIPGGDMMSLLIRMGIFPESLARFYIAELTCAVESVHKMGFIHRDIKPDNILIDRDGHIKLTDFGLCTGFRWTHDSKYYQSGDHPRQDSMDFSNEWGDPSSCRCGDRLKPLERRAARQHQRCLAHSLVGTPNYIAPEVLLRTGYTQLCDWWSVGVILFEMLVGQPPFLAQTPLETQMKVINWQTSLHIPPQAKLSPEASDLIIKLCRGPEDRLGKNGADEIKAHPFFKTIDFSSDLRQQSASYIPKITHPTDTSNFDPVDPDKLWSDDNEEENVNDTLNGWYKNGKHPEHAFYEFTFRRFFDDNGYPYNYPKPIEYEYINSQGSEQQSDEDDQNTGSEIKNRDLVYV

Serine/threonine-protein kinase N1, sequence (Q16512 2-942 limits assumed): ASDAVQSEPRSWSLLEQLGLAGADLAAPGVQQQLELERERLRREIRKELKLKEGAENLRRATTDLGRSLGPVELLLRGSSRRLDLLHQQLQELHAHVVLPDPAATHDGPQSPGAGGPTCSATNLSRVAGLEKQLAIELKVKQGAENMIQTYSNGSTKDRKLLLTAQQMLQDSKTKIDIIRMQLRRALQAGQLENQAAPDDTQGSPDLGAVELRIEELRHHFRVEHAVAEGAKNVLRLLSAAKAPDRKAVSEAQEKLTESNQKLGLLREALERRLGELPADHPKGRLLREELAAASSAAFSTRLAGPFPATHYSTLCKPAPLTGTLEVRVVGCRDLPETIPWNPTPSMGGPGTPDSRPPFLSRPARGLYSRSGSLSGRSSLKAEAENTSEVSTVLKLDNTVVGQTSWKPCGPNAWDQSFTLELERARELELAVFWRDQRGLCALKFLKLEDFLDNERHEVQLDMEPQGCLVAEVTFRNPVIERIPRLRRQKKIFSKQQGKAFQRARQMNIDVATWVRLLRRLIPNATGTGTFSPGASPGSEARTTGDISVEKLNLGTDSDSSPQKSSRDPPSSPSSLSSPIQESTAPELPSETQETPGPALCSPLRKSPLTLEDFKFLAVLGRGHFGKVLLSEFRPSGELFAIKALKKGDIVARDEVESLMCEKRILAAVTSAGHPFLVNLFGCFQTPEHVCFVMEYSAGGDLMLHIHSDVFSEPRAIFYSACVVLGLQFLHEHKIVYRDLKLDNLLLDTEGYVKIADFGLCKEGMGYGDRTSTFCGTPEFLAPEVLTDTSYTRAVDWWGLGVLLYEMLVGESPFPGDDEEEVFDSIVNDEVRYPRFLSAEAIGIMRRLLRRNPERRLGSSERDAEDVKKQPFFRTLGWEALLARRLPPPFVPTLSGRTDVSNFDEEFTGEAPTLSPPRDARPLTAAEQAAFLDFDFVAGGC
Serine/threonine-protein kinase WNK1 (Homo sapiens), sequence (Q9H4A3 whole entry, looked up): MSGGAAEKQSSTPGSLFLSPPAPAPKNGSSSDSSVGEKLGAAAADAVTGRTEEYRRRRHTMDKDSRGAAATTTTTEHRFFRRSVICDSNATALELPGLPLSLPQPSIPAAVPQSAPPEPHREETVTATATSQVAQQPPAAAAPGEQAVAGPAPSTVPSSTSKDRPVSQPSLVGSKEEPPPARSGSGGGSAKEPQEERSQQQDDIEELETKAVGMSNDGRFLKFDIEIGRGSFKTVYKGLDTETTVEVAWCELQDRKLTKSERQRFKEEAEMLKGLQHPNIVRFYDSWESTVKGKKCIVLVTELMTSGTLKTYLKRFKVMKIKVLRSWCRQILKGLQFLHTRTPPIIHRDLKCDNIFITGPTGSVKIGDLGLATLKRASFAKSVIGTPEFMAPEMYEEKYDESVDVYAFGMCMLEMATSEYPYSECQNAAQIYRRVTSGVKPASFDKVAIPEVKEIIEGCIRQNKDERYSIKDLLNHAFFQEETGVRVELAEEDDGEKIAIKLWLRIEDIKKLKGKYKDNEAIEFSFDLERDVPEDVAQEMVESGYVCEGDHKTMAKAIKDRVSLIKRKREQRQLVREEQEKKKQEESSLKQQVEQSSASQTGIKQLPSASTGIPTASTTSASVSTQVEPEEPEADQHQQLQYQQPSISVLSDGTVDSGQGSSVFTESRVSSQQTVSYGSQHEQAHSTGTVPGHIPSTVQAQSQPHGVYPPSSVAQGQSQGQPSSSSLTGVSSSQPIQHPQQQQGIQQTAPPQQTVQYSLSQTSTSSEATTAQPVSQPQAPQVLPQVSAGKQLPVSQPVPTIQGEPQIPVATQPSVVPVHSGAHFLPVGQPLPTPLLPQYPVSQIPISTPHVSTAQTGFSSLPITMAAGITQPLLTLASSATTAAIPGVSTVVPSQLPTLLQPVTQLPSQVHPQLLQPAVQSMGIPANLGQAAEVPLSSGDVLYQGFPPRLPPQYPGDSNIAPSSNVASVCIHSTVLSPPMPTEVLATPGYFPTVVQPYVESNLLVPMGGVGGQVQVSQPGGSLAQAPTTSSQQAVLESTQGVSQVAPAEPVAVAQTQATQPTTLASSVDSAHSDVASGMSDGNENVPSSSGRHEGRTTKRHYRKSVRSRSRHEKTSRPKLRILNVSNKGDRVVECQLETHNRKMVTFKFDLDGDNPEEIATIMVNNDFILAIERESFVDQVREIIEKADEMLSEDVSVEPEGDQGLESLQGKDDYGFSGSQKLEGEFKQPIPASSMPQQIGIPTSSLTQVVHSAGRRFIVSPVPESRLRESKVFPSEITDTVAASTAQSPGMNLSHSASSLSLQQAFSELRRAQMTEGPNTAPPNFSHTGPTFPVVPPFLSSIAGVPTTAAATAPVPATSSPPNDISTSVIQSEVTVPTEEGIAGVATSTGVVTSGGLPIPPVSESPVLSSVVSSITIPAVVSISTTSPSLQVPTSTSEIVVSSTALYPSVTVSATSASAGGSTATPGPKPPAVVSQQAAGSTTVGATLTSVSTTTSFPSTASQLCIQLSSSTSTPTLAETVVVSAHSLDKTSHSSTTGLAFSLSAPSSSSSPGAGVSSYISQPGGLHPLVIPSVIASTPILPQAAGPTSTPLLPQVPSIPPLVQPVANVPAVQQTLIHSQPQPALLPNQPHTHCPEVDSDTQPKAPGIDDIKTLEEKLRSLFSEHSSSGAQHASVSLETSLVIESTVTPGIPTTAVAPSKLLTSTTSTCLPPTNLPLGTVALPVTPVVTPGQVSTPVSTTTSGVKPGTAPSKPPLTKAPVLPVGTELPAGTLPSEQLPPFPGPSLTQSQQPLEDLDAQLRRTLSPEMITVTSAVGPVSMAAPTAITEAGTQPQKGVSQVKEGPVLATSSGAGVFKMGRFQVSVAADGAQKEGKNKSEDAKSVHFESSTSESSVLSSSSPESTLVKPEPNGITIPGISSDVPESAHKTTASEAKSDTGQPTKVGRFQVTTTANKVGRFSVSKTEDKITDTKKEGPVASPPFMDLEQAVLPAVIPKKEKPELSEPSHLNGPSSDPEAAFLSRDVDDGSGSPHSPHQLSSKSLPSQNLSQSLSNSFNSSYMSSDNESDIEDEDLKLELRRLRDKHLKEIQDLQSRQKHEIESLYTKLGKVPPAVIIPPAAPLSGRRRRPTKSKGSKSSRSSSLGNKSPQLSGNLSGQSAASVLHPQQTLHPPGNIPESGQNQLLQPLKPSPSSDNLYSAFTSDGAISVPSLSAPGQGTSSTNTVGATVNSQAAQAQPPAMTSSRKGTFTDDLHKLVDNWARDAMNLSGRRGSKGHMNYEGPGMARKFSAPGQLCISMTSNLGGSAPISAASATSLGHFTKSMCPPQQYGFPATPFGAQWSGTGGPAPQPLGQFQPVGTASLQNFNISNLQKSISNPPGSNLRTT

SMILES: CNC(=O)Nc1ccc(-c2nc(N3CC4CCC(C3)O4)c3cnn(C4CCC5(CC4)OCCO5)c3n2)cc1
- % of control [1]: 95%

- dTM [2]: -0.4 K
SMILES: CN(C(=O)c1cnn2cccnc12)c1cc2c(cc1N1CCOCC1)C(=O)N(C[C@@H](F)C(C)(C)O)C2

SMILES: COCC(=O)NC/C=C/c1ccc2ncnc(Nc3ccc(Oc4ccc(C)nc4)c(C)c3)c2c1 [CP-724714]
- % of control [3]: 84%

SMILES: COc1cc(N(C)c2ccnc3ccc(C(F)(F)F)cc23)cc(OC)c1OC
- % binding [4]: 81%

SMILES: Cc1cc([C@@H](C)Nc2ccccc2C(=O)O)c2nc(N3CCOCC3)cc(=O)n2c1 [AZD-6482]
- % of control [5]: 100%
